From patent US10435399B2, “HDAC6 inhibitory heterocyclic compound” (TAKEDA PHARMACEUTICAL COMPANY LIMITED, priority 2017, dated 2019)

target: T1, HDAC6 enzyme (Homo sapiens, UniProt Q9UBN7); assay: HDAC6 enzyme inhibitory activity (HDAC-Glo I/II Assay kit); type: biochemical; conditions: 10 μM; wells without enzyme = 100% inhibition
T1 construct: transducing full length HDAC6 gene into Sf-9 insect cells; GST; purchased SignalChem; host or cells: Sf-9 insect cells
T1 sequence (Q9UBN7 1-1215): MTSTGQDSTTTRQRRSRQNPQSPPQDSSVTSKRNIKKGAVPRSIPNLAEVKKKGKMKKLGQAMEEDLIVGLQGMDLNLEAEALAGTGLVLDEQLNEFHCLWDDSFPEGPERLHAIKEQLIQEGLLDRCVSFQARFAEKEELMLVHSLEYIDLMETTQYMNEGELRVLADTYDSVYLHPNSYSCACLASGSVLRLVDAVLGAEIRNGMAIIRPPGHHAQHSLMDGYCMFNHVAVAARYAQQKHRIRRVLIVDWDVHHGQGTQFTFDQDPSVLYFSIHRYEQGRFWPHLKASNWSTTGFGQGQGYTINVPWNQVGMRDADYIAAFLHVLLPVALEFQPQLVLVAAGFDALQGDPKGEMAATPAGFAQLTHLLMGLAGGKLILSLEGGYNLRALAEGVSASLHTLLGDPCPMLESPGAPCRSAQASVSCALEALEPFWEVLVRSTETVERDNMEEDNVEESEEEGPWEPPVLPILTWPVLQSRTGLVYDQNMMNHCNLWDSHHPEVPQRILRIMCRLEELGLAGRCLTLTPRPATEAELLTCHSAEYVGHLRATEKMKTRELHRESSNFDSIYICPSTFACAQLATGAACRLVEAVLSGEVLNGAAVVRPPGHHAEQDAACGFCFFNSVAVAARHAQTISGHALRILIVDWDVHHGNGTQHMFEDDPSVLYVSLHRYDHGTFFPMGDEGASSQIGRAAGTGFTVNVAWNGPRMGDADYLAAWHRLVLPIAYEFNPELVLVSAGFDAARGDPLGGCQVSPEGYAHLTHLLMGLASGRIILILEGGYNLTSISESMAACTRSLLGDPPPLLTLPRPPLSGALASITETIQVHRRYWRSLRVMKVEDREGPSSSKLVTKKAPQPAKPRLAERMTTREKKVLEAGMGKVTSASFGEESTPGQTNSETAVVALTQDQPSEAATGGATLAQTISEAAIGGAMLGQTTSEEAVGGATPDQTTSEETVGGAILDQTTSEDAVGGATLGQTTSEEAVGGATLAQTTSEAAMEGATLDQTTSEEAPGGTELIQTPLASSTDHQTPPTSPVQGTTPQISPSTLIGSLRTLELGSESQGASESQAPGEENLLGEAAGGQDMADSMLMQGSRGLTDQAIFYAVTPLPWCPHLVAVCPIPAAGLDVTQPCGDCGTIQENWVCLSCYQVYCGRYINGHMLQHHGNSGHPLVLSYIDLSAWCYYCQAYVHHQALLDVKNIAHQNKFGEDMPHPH
Method in brief: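 Inhibition is calculated as relative activity, taking luminescence in enzyme-free wells as complete inhibition. The enzyme, full-length and GST-purified after Sf-9 expression, was exposed to compound for 60 min at room temperature before a 20 min HDAC-Glo reaction.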

HDAC6 inhibitory rate (%) (10 μM) | SMILES
100% | O=C(N[C@@H]1CCCC[C@H]1N1Cc2ccc(-c3nnc(C(F)F)o3)cc2C1=O)C1CC12CCC2 (stereo partly drawn) [Example 119, N-((1R,2R)-2-(6-(5-(difluoromethyl)-1,3,4-oxadiazol-2-yl)-1-oxo-1,3-dihydro-2H-isoindol-2-yl)cyclohexyl)spiro[2.3]hexane-1-carboxamide (optical isomer)]
100% | O=C(N[C@@H]1CCCC[C@H]1N1Cc2ccc(-c3nnc(C(F)F)o3)cc2C1=O)C1CC1(F)F (stereo partly drawn) [Example 121, N-((1R,2R)-2-(6-(5-(difluoromethyl)-1,3,4-oxadiazol-2-yl)-1-oxo-1,3-dihydro-2H-isoindol-2-yl)cyclohexyl)-2,2-difluorocyclopropanecarboxamide (optical isomer)]

same assay, conditions: 10 μM; wells without enzyme = 100% inhibition; read-out: HDAC6 inhibitory rate (%) (10 μM)

SMILES | inhibition at 10 µM
C[C@@H](C1CC1)N1Cc2ccc(-c3nnc(C(F)F)o3)cc2C1=O [Example 116, 2-((1S)-1-cyclopropylethyl)-6-(5-(difluoromethyl)-1,3,4-oxadiazol-2-yl)isoindolin-1-one] | 98%
CCCCO[C@H]1CC[C@H](N2Cc3ccc(-c4nnc(C(F)F)o4)cc3C2=O)CC1 [Example 117, 2-(trans-4-butoxycyclohexyl)-6-(5-(difluoromethyl)-1,3,4-oxadiazol-2-yl)isoindolin-1-one] | 96%
O=C1c2cc(-c3nnc(C(F)F)o3)ccc2CN1C1CCOCC1 [Example 122, 6-(5-(difluoromethyl)-1,3,4-oxadiazol-2-yl)-2-(tetrahydro-2H-pyran-4-yl)isoindolin-1-one] | 95%
O=C1c2cc(-c3nnc(C(F)F)o3)ccc2CN1[C@@H]1CCCC[C@H]1n1ccnn1 [Example 123] | 101%
O=C1CCCN1[C@@H]1CCCC[C@H]1N1Cc2c(F)cc(-c3nnc(C(F)F)o3)cc2C1=O [Example 124, 6-(5-(difluoromethyl)-1,3,4-oxadiazol-2-yl)-4-fluoro-2-((1R,2R)-2-(2-oxopyrrolidin-1-yl)cyclohexyl)isoindolin-1-one] | 99%
CC(C)(C)OC(=O)N1CC[C@@H](N2Cc3ccc(-c4nnc(C(F)F)o4)cc3C2=O)[C@@H](c2ccccc2)C1 [Example 125, tert-butyl (3S,4R)-4-(6-(5-(difluoromethyl)-1,3,4-oxadiazol-2-yl)-1-oxo-1,3-dihydro-2H-isoindol-2-yl)-3-phenylpiperidine-1-carboxylate] | 98%
O=C1c2cc(-c3nnc(C(F)F)o3)ccc2CN1[C@@H]1CCNC[C@@H]1c1ccccc1 [Example 126, 6-(5-(difluoromethyl)-1,3,4-oxadiazol-2-yl)-2-((3S,4R)-3-phenylpiperidin-4-yl)isoindolin-1-one] | 100%
CCOC(=O)N1CCC(N2Cc3ccc(-c4nnc(C(F)F)o4)cc3C2=O)CC1 [Example 130, ethyl 4-(6-(5-(difluoromethyl)-1,3,4-oxadiazol-2-yl)-1-oxo-1,3-dihydro-2H-isoindol-2-yl)piperidine-1-carboxylate] | 93%
COc1ccc(-c2ccccc2N2Cc3ccc(-c4nnc(C(F)F)o4)cc3C2=O)cc1 [Example 134, 6-(5-(difluoromethyl)-1,3,4-oxadiazol-2-yl)-2-(4′-methoxybiphenyl-2-yl)isoindolin-1-one] | 101%
O=C1CCCCN1[C@@H]1COCC[C@H]1N1Cc2c(F)cc(-c3nnc(C(F)F)o3)cc2C1=O [Example 137, 6-(5-(difluoromethyl)-1,3,4-oxadiazol-2-yl)-4-fluoro-2-((3S,4R)-3-(2-oxopiperidin-1-yl)tetrahydro-2H-pyran-4-yl)isoindolin-1-one] | 98%
O=C1c2cc(-c3nnc(C(F)F)o3)cnc2CN1Cc1ccccc1 [Example 139, 6-benzyl-3-(5-(difluoromethyl)-1,3,4-oxadiazol-2-yl)-6,7-dihydro-5H-pyrrolo[3,4-b]pyridin-5-one] | 100%
C[C@@H](c1ccc(F)cc1)N1Cc2ncc(-c3nnc(C(F)F)o3)cc2C1=O [Example 141, 3-(5-(difluoromethyl)-1,3,4-oxadiazol-2-yl)-6-((1S)-1-(4-fluorophenyl)ethyl)-6,7-dihydro-5H-pyrrolo[3,4-b]pyridin-5-one] | 100%

Continued, values first:

inhibition at 10 µM | SMILES
102% | O=C(N[C@@H]1CCCC[C@H]1N1Cc2ccc(-c3nnc(C(F)F)o3)cc2C1=O)[C@H]1CCCO1 [Example 113, (2R)-N-((1R,2R)-2-(6-(5-(difluoromethyl)-1,3,4-oxadiazol-2-yl)-1-oxo-1,3-dihydro-2H-isoindol-2-yl)cyclohexyl)tetrahydrofuran-2-carboxamide]
100% | O=C(N[C@@H]1CCCC[C@H]1N1Cc2ccc(-c3nnc(C(F)F)o3)cc2C1=O)[C@H]1CCOC1 [Example 114, (3S)-N-((1R,2R)-2-(6-(5-(difluoromethyl)-1,3,4-oxadiazol-2-yl)-1-oxo-1,3-dihydro-2H-isoindol-2-yl)cyclohexyl)tetrahydrofuran-3-carboxamide]
96% | C[C@H](C1CC1)N1Cc2ccc(-c3nnc(C(F)F)o3)cc2C1=O [Example 115, 2-((1R)-1-cyclopropylethyl)-6-(5-(difluoromethyl)-1,3,4-oxadiazol-2-yl)isoindolin-1-one]
100% | CC(=O)N1CC[C@@H](N2Cc3ccc(-c4nnc(C(F)F)o4)cc3C2=O)[C@@H](c2ccccc2)C1 [Example 127, 2-((3S,4R)-1-acetyl-3-phenylpiperidin-4-yl)-6-(5-(difluoromethyl)-1,3,4-oxadiazol-2-yl)isoindolin-1-one]
100% | COC(=O)N1CC[C@@H](N2Cc3ccc(-c4nnc(C(F)F)o4)cc3C2=O)[C@@H](c2ccccc2)C1 [Example 128, methyl (3S,4R)-4-(6-(5-(difluoromethyl)-1,3,4-oxadiazol-2-yl)-1-oxo-1,3-dihydro-2H-isoindol-2-yl)-3-phenylpiperidine-1-carboxylate]
100% | O=C1c2cc(-c3nnc(C(F)F)o3)ccc2CN1c1ccccc1-c1ccccc1 [Example 129, 2-(biphenyl-2-yl)-6-(5-(difluoromethyl)-1,3,4-oxadiazol-2-yl)isoindolin-1-one]
99% | O=C(N[C@@H]1CCCC[C@H]1N1Cc2ccc(-c3nnc(C(F)F)o3)cc2C1=O)OCC(F)F [Example 131, 2,2-difluoroethyl ((1R,2R)-2-(6-(5-(difluoromethyl)-1,3,4-oxadiazol-2-yl)-1-oxo-1,3-dihydro-2H-isoindol-2-yl)cyclohexyl)carbamate]
94% | O=C(N[C@@H]1CCCC[C@H]1N1Cc2ccc(-c3nnc(C(F)F)o3)cc2C1=O)OCCC(F)(F)F [Example 132, 3,3,3-trifluoropropyl ((1R,2R)-2-(6-(5-(difluoromethyl)-1,3,4-oxadiazol-2-yl)-1-oxo-1,3-dihydro-2H-isoindol-2-yl)cyclohexyl)carbamate]
93% | O=C1c2cc(-c3nnc(C(F)F)o3)ccc2CN1c1ccccc1-c1ccc(C(F)(F)F)cc1 [Example 133, 6-(5-(difluoromethyl)-1,3,4-oxadiazol-2-yl)-2-(4′-(trifluoromethyl)biphenyl-2-yl)isoindolin-1-one]
99% | O=C1c2cc(-c3nnc(C(F)F)o3)cc(F)c2CN1Cc1ccccc1 [Example 136, 2-benzyl-6-(5-(difluoromethyl)-1,3,4-oxadiazol-2-yl)-4-fluoroisoindolin-1-one]
98% | O=C1OCCN1[C@@H]1CCCC[C@H]1N1Cc2c(F)cc(-c3nnc(C(F)F)o3)cc2C1=O [Example 138, 6-(5-(difluoromethyl)-1,3,4-oxadiazol-2-yl)-4-fluoro-2-((1R,2R)-2-(2-oxo-1,3-oxazolidin-3-yl)cyclohexyl)isoindolin-1-one]
100% | C[C@H](c1ccc(F)cc1)N1Cc2ncc(-c3nnc(C(F)F)o3)cc2C1=O [Example 140, 3-(5-(difluoromethyl)-1,3,4-oxadiazol-2-yl)-6-((1R)-1-(4-fluorophenyl)ethyl)-6,7-dihydro-5H-pyrrolo[3,4-b]pyridin-5-one]
